Results reported in US11172673B2, “Platelet storage methods and compositions for same” (Children's Hospital Medical Center, priority 2014, dated 2021).
“Also recorded” adds a separate entry of the source.

Assays:
RhoA [1] = target: T1, RhoA (Homo sapiens, UniProt P61586); assay: Collagen-induced RhoA activity in platelets, GST-Rhotekin pulldown assay; type: cell-based; parameters: endogenous in cells; host or cells: human platelets; conditions: G04 50 μM, FIG. 5B
Protocol: FIG. 5B. Collagen-induced RhoA activity is inhibited by Go4 (50 μM) in a GST-Rhotekin pulldown assay.
(§1) Finally, G04/Rhosin was also developed by us as a RhoA GTPase activation site inhibitor that transiently and specifically blocks RhoA activity and RhoA-mediated signaling functions (36, 37). […] Effect by collagen or thrombin is reversible (FIG. 5D, lower).
Target sequence in this assay (P61586 whole entry): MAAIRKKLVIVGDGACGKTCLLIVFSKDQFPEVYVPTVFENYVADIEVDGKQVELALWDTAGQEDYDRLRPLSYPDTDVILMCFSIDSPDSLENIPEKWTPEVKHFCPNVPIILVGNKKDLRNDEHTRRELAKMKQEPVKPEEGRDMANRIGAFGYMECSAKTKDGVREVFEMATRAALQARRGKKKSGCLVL

RhoA [2] = target: T1, RhoA; conditions: cited from earlier work
Target sequence in this assay (P61586 whole entry, species assumed): as the sequence (P61586 whole entry) above

platelets [3] = assay: Platelet actin lamellopodia structure / spreading, rhodamine-phalloidin staining; type: cell-based, human; conditions: for Fibrinogen-mediated platelet actin lamellopodia structure: NSC23766 50 μM, FIG. 4C
Protocol: FIG. 4C. Fibrinogen-mediated platelet actin lamellopodia structure is blocked by NSC23 766 (50 μM). Rhodamine conjugated phalloidin-staining of platelets adhered to coated collagen surface.
FIG. 5C. U46629 ([…]/Fibrinogen (3 μM)-mediated platelet actin lamellopodia structure is blocked by G04 (30 μM). Rhodamine conjugated phalloidin-staining of platelets adhered to coated collagen surface.
Similarly, Applicant has identified an inhibitor of Rac, NSC23766 (30-34), with an ability to impair Rac1 activation by multiple activating signals which may be crucial in platelet signaling associated with GpIb/GpX (35). NSC23766 was discovered in a structure-based virtual screening of compounds that fit into a surface groove of Rac 1 known to be critical for guanine nucleotide exchange factor specification (34) (FIG. 4A).
as §1

RhoA [4] = target: T1, RhoA; conditions: binding to surface area sandwiching Trp58 of RhoA; cited from earlier work
Target sequence in this assay (P61586 whole entry, species assumed): as the sequence (P61586 whole entry) above

platelets [5] = assay: Collagen induced platelet aggregation; type: cell-based, human; conditions: for Reversibility of aggregation block upon a wash of the inhibitor treated platelets: up to 30 μM Casin, FIG. 3D lower panel
Protocol: FIG. 3D. Collagen induced aggregation is blocked by 10 μM Casin (upper panel) and is reversible (up to 30 μM Casin) upon a wash of the inhibitor treated platelets (lower panel).
FIG. 4D. Collagen induced aggregation is blocked by NSC23766 in a dose-dependent fashion.
FIG. 4E. Inhibition of collagen induced platelet aggregation by NSC23766 (50 μM) is reversible upon a wash of the inhibitor treated platelets.
(§2) FIG. 5D. Collagen induced aggregation is inhibited by G04 (upper panel). Similar to collagen, thrombin induced aggregation (data not shown) is blocked by G04 in a dose-dependent fashion (upper panel) and is reversible upon a wash of the inhibitor treated platelets (lower panel).
Applicant has tested the ability of three chemical inhibitors, CASIN, NSC23766 and G04, targeting Cdc42, Rac1 and RhoA, respectively (FIG. 2), to inhibit the activity of the GTPases and the consequent cytoskeleton-dependent functions of human platelets. A rationally developed inhibitor of Cdc42 with activity on activation by guanine nucleotide exchange factors is CASIN (29, Nature Biotech under revision). CASIN was recently discovered by Zheng group as a small molecule that recognizes a pocket domain that specifically blocks the ability of GEF interaction with Cdc42 (FIG. 3A). CASIN is found to suppress of hematopoietic stem cell aging through its specific Cdc42 inhibitory activity (29). In platelets, it inhibits Cdc42 activation (FIG. 3B) and prevents collagen-induced platelet shape changes (FIG. 3C). […]
as §1

platelets [6] = assay: Thrombin induced platelet aggregation; type: cell-based, human
Excerpt: as §2, §1

[7] = system: C57Bl/6 murine carboxyfluorescein-labeled platelets; assay: Recovery and survival of refrigerated platelets after infusion in congenic mice; type: in vivo; conditions: for Platelet 24-hour recovery in vivo / Platelet survival in vivo: refrigerated platelets stored at 0° C.; for Platelet 24-hour recovery in vivo: FIG. 6B; for Platelet survival in vivo: FIG. 6C
Protocol: FIG. 6C-FIG. 6D. Platelet recovery at different time points. Donor platelets were stored at room temperature (squares) or pretreated with a mixed Rho GTPase inhibitors (50 μM NSC23766, 10 μM CASIN and/or 75 μM G04) or no drug (control). Data are presented as mean SD. *p<0.01 (Anova test with Bonferroni correction, between refrigerated with no inhibitor and refrigerated with triple inhibitor combination).
FIG. 7 depicts effects of Rho GTPase inhibitor combinations on platelet survival upon transfusion. Platelet recovery at different time points is shown. Donor platelets were stored at room temp (squares) or pretreated with a mixed Rho GPase inhibitors (50 uM NSC23766, 10 uM CASIN and/or 75 uM G04) or no drug (Ctrl). Data are presented as mean±SD. *p<0.01 (Anova test with Bonferroni correction, between refrigerated with no inhibitor and refrigerated with triple inhibitor combination).
A combination of CASIN (10 μM), G04 (75 μM) and/or NSC23766 were used in C57Bl/6 murine carboxyfluorescein-labeled platelets incubated at 0° C. or 5° C. for 3.5 hours. After re-warming, platelets were infused in 5 congenic mice (per group) and compared with control (room temperature stored) and refrigerated, untreated platelet group (FIG. 7). […] In a second experiment focused on the specific combinations with more activity to reverse the survival impairment associated with the use of Rho GTPase inhibitors, we analyzed the 24-hour recovery (%) and survival (hours) of platelets that had been stored in presence of several combinations of drugs (FIG. 6A).

platelets [8] = assay: Platelet actin filopodia structure / shape change, rhodamine-phalloidin staining; type: cell-based, human; conditions: Casin 10 μM, platelets adhered to coated collagen surface, FIG. 3C
Protocol: FIG. 3C. Fibrinogen mediated platelet actin filopedia structure is blocked by Casin (10 μM). Rhodamine conjugated phalloidin-staining of platelets adhered to coated collagen surface.
(§3) Applicant has tested the ability of three chemical inhibitors, CASIN, NSC23766 and G04, targeting Cdc42, Rac1 and RhoA, respectively (FIG. 2), to inhibit the activity of the GTPases and the consequent cytoskeleton-dependent functions of human platelets. A rationally developed inhibitor of Cdc42 with activity on activation by guanine nucleotide exchange factors is CASIN (29, Nature Biotech under revision). CASIN was recently discovered by Zheng group as a small molecule that recognizes a pocket domain that specifically blocks the ability of GEF interaction with Cdc42 (FIG. 3A). CASIN is found to suppress of hematopoietic stem cell aging through its specific Cdc42 inhibitory activity (29). In platelets, it inhibits Cdc42 activation (FIG. 3B) and prevents collagen-induced platelet shape changes (FIG. 3C).

hematopoietic stem cell = conditions: cited from earlier work
Cdc42 = target: T2, Cdc42 (Homo sapiens, UniProt P60953); assay: Cdc42 activation in platelets, GST-PAK pulldown assay; type: cell-based; conditions: Casin 10 μM, FIG. 3B
T2 construct: endogenous in cells; host or cells: human platelets
Protocol: FIG. 3B. Collagen-induced Cdc42 activation is inhibited by Casin (10 μM) in a GST-PAK pulldown assay.
as §3

T2 sequence (P60953 whole entry): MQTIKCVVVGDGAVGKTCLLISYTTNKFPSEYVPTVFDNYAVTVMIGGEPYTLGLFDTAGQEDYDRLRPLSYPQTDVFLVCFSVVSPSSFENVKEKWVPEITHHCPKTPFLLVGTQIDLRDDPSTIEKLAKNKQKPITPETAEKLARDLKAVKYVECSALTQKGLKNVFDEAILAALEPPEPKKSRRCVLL

What does the source list for N[C@H](Cc1c[nH]c2ccccc12)C(=O)N/N=C/c1ccc2nccnc2c1 [G04]?
Collagen-induced RhoA activity (RhoA [1]): specifically inhibits; Collagen-induced RhoA activity (RhoA [1]; listed as Go4): inhibited; GEF-catalyzed RhoA activation (RhoA [2]): effectively inhibits; U46629/Fibrinogen-mediated platelet actin lamellopodia structure (platelet spreading) (platelets [3]; G04 30 μM, U46629 10 mM, Fibrinogen 3 μM, FIG. 5C): inhibits; also recorded: blocked; Kd (RhoA [4]): submicromolar; Collagen induced aggregation (platelets [5]; G04, FIG. 5D upper panel): inhibited; Reversibility of effect on collagen induced aggregation (platelets [5]; G04, wash of inhibitor treated platelets, FIG. 5D lower): reversible; Thrombin induced aggregation (platelets [6]; G04, dose-dependent fashion, data not shown): blocked; Reversibility of block of thrombin induced aggregation upon a wash (platelets [6]; G04, FIG. 5D lower panel): reversible; Platelet 24-hour recovery in vivo [7]: did not improve; Platelet survival in vivo [7]: did not improve

Which results are given for CCN(CC)CCCC(C)Nc1nc(C)cc(Nc2ccc3nc(C)cc(N)c3c2)n1 (racemic) [NSC23766]?
Fibrinogen-mediated platelet actin lamellopodia structure (platelets [3]): effectively block; Fibrinogen-mediated platelet actin lamellopodia structure (platelets [3]; listed as NSC23 766): blocked; Reversibility of inhibition of collagen induced platelet aggregation upon a wash (platelets [5]; NSC23766 50 μM, FIG. 4E): reversible; Collagen induced aggregation (platelets [5]; NSC23766, dose-dependent fashion, FIG. 4D): reversibly inhibits; also recorded: blocked; Reversal of the survival deficiency (storage lesion) induced by refrigerated storage ([7]; platelets incubated at 0° C. or 5° C. for 3.5 hours, infused in congenic mice, 50 uM NSC23766, 10 uM CASIN and/or 75 uM G04, FIG. 7): did not result in significant reversal

With OCCNC1CCCc2c1[nH]c1ccc(-c3ccccc3)cc21 (stereo not drawn) [CASIN] as the compound, how does the “Platelet actin filopodia structure / collagen-induced platelet shape changes” value (platelets [8]) read?
Its value is “prevents”.

And the “Platelet actin filopodia structure / collagen-induced platelet shape changes” value (platelets [8]; listed as Casin)?
The value was “blocked”.

What about the “Hematopoietic stem cell aging” value (hematopoietic stem cell) of the same compound?
The value was “suppress”.

And the Collagen induced aggregation (platelets [5]; 10 μM Casin, FIG. 3D upper panel)?
Its Collagen induced aggregation is “prevention”.

And the Collagen induced aggregation (platelets [5]; 10 μM Casin, FIG. 3D upper panel, listed as Casin)?
Its Collagen induced aggregation is “blocked”.

What about the “Reversibility of aggregation block upon a wash of the inhibitor treated platelets” value (platelets [5]) of the same compound?
The value was “can be reversed”.

And the “Reversibility of aggregation block upon a wash of the inhibitor treated platelets” value (platelets [5]; listed as Casin)?
The value was “reversible”.

And the “Collagen-induced Cdc42 activation” value (Cdc42)?
Its value is “inhibits”.

And the “Collagen-induced Cdc42 activation” value (Cdc42; listed as Casin)?
The value was “inhibited”.

And the “Platelet 24-hour recovery in vivo” value [7]?
The value was “did not improve”.

And the “Platelet survival in vivo” value [7]?
The value was “did not improve”.
